Results: the OligoGym collection
Where “and” joins values, the source holds several entries; their conditions need not be identical. Identical values can stand only once. After the bases stand the sugars from the 5' end (letter, count) and the backbone: PS all phosphorothioate, else s phosphorothioate and o phosphodiester by linkage. Methylation of C is not given here. e = 2'-O-(2-methoxyethyl) (MOE); k = constrained ethyl (cEt); d = 2'-deoxy (DNA)

Molecular target: IRF4
Settings: ASO

| Sequence | target mRNA inhibition (MM.1R, 1 µM) | target mRNA inhibition (SK-MEL-28, 4 µM) | further results |
| --- | --- | --- | --- |
| GCGCTCTCTCTGTAAC (sugars k3 d10 k3, PS) | -7% |  |  |
| AGCATCTAAGGCAAGC (sugars k3 d10 k3, PS) |  | 57% |  |
| CACTGCCGTGATCTGA (sugars k3 d10 k3, PS) | 9% |  |  |
| CCCAGTCTACTGCTGT (sugars k3 d10 k3, PS) |  | 66% |  |
| CCGGAGGAAGTCCCCT (sugars k3 d10 k3, PS) | 0% |  |  |
| GAGTTACCGCATTGCT (sugars k3 d10 k3, PS) | 47% and 52% |  | target mRNA inhibition (MM.1R, 0.0625 µM): -9%; target mRNA inhibition (MM.1R, 0.25 µM): 16%; target mRNA inhibition (MM.1R, 4 µM): 81% |
| GGCACAGCCGTCCGCC (sugars k3 d10 k3, PS) |  | 11% |  |
| GAACATCTCAGATACA (sugars k3 d10 k3, PS) |  | 42% |  |
| ACGTGTGCTTGCCAAG (sugars kkdddddddddekeke, PS) | 59% and 61% |  |  |
| GCCGCCCTCCAGGTTC (sugars k3 d10 k3, PS) |  | 49% |  |
| ACGAGAACGCACGGAC (sugars k3 d10 k3, PS) |  | 40% |  |
| TAAAGAATGAGGGTCA (sugars k3 d10 k3, PS) |  | 45% |  |
| GTAGTATGAGAAACGG (sugars k3 d10 k3, PS) |  | 83% and 80% |  |
| CCTCAGTTTGTGAAGC (sugars kkdddddddddkekek, PS) | 15% |  |  |
| GTTGTCTGGCTAGCAG (sugars k4 d8 k4, PS) |  | 52% | target mRNA inhibition (SK-MEL-28, 0.185 µM): 6% and 4%; target mRNA inhibition (SK-MEL-28, 5 µM): 42% and 44% and 53%; target mRNA inhibition (SK-MEL-28, 15 µM): 62% and 65% and 83% |
| CACATCAATGTTTTAG (sugars kdddddddddkekeke, PS) | -2% and 18% |  |  |
| TAGATCTGTGGTAATC (sugars k3 d10 k3, PS) | 20% and 6% |  |  |
| CCTGAGAGTAAACTTG (sugars k3 d10 k3, PS) |  | 18% |  |
| ATGTGATAGCTGAGCT (sugars kddddddddddkekek, PS) | -3% |  |  |
| AACCAAGAAATGCACC (sugars k3 d10 k3, PS) |  | 33% |  |
| AGACAGAGAGTCCGAC (sugars k3 d10 k3, PS) |  | 7% |  |
| GGAGAAACGAGCCAGT (sugars k3 d10 k3, PS) |  | 47% |  |
| AAACAGCCGCCGGCAC (sugars k3 d10 k3, PS) |  | 11% |  |
| TCAATAATCTCCCAGC (sugars k3 d10 k3, PS) |  | 55% |  |
| TGAGATAAGAAGCACT (sugars k3 d10 k3, PS) |  | 20% |  |
| TGTAGTATGAGAAACG (sugars kddddddddddkekek, PS) | 7% |  |  |

| Sequence | target mRNA inhibition (MM.1R, 1 µM) | target mRNA inhibition (SK-MEL-28, 4 µM) | further results |
| --- | --- | --- | --- |
| GAAAACAGCCGCCGGC (sugars k3 d10 k3, PS) |  | 26% |  |
| GGGATTATATACTGGT (sugars kkddddddddddkeke, PS) | 46% |  |  |
| GGAGTACCCGCAGAGA (sugars k3 d10 k3, PS) |  | 25% |  |
| ACTGCTGTGTGTCAAA (sugars k3 d10 k3, PS) |  | -6% |  |
| GAAGCATTTTATCATC (sugars kdddddddddkekeke, PS) | 4% |  |  |
| GAAGCATTTTATCATC (sugars k3 d9 k3 e1, PS) | 1% |  |  |
| GGCCACCGACTCTTTT (sugars k3 d10 k3, PS) |  | 13% |  |
| GCGCATTTCAGTAAAT (sugars k3 d10 k3, PS) |  | 33% |  |
| CCTAAATCACCCTGGT (sugars k3 d10 k3, PS) |  | 27% |  |
| GCAATTAGCTCTTCTA (sugars k3 d10 k3, PS) |  | 21% |  |
| GGCAACCTGCATTTGC (sugars k3 d10 k3, PS) |  | -13% |  |
| CCGTGAAACAGCAGTT (sugars k3 d10 k3, PS) |  | 56% |  |
| CAGATGGCATGCGAAT (sugars k3 d10 k3, PS) |  | 35% |  |
| ATTTATGCCCTCGCTC (sugars k3 d10 k3, PS) |  | 26% |  |
| CACTAAGTGGGCTCTG (sugars k3 d10 k3, PS) |  | 41% |  |
| CCACATGTCCCGTGGG (sugars k3 d10 k3, PS) | -28% |  |  |
| GAATTAGGTGCTTAAT (sugars k3 d10 k3, PS) |  | 59% |  |
| GGCTGATAATTAATCT (sugars k3 d10 k3, PS) |  | 47% |  |
| GATATAAATAGCTGTT (sugars k3 d10 k3, PS) |  | 37% |  |
| CAGTGATGTCAGGTTT (sugars e1 k2 d9 k2 e2, PS) | 20% |  |  |
| GGTAGTAGACCACAGT (sugars k3 d10 k3, PS) | 23% |  |  |
| CCTGTCACCTGGCAAC (sugars k4 d8 k4, PS) |  | 37% |  |
| GAAGCTTAGTTATCTG (sugars k3 d10 k3, PS) | 45% and 39% |  |  |
| AGCAATTGAAATGGAG (sugars k3 d10 k3, PS) |  | 22% |  |
| AGCCGCCACATCAGCA (sugars k3 d10 k3, PS) |  | 21% |  |
| AAACAGTGCCCAAGCC (sugars k3 d10 k3, PS) |  | 25% |  |

| Sequence | target mRNA inhibition (MM.1R, 1 µM) | target mRNA inhibition (SK-MEL-28, 4 µM) | further results |
| --- | --- | --- | --- |
| GATTATATACTGGTTG (sugars kkdddddddddkdkdk, PS) | 35% |  |  |
| GGCCGCCGTGAGCTTG (sugars k3 d10 k3, PS) |  | 3% |  |
| GCATCTCTAAAGAATG (sugars k3 d10 k3, PS) |  | 61% |  |
| ACACGGGAATTTCCAT (sugars k3 d10 k3, PS) |  | 56% |  |
| AAGTTCATGTAAAGTC (sugars kkdddddddddkekek, PS) | 34% and 27% |  |  |
| AATTACTGCTTGAGGT (sugars k3 d10 k3, PS) |  | 58% |  |
| GTGAAACTGAGAGTGC (sugars k3 d10 k3, PS) |  | -20% |  |
| TGCTGATCCTGGGAGT (sugars k3 d10 k3, PS) |  | 79% |  |
| GTAATAGTAAATATCC (sugars k3 d10 k3, PS) |  | 61% |  |
| TCCCACGCGGGAGGCT (sugars k3 d10 k3, PS) |  | 1% |  |
| ACGAAAACAGCCGCCG (sugars k3 d10 k3, PS) |  | 14% |  |
| ATTCCAAACCTTAAGC (sugars k3 d10 k3, PS) | -1% |  |  |
| TGCCGTGTCAGGGTCG (sugars k3 d10 k3, PS) |  | 11% |  |
| GGCAGACCTTATGCTT (sugars k3 d10 k3, PS) |  | 21% |  |
| CATTATCTACCTCAGT (sugars k3 d10 k3, PS) |  | 35% |  |
| GTCCTGCTTGCCCGCG (sugars k4 d8 k4, PS) |  | 14% |  |
| CCACCCTCCGTCTCAC (sugars k3 d10 k3, PS) |  | 33% |  |
| GGACAGCCAAACAAAC (sugars k3 d10 k3, PS) |  | 7% |  |
| GAACCTGCTGGGCTGG (sugars k4 d8 k4, PS) |  | 13% |  |
| GGTGAGAGACGAAAAC (sugars k3 d10 k3, PS) | -16% |  |  |
| GGGAACAAAAGGTTCC (sugars k3 d10 k3, PS) |  | -11% |  |
| ACGGAAGTTTACACTG (sugars k2 d9 e3 k2, PS) | 15% |  |  |
| TCCAAGCAATTATTCC (sugars k3 d10 k3, PS) |  | 12% |  |
| CCCACATAACTCAGGC (sugars k3 d10 k3, PS) | -16% |  |  |
| GACTGGAGTGAACCCT (sugars k3 d10 k3, PS) | 38% |  |  |
| AGGGTCACAGGTAAGG (sugars k3 d10 k3, PS) |  | 68% |  |

| Sequence | target mRNA inhibition (MM.1R, 1 µM) | target mRNA inhibition (SK-MEL-28, 4 µM) | further results |
| --- | --- | --- | --- |
| TGGAAACTCCTCTCCA (sugars k3 d10 k3, PS) |  | 16% |  |
| GCAGTGATGTCAGGTT (sugars e1 k2 d9 k2 e2, PS) | 56% |  | target mRNA inhibition (MM.1R, 0.074 µM): 15%; target mRNA inhibition (MM.1R, 0.222 µM): 33%; target mRNA inhibition (MM.1R, 0.666 µM): 52%; target mRNA inhibition (MM.1R, 2 µM): 75% |
| AGCTTGATAAAGGCTG (sugars kkdddddddddekeke, PS) | 18% |  |  |
| GCTCAGCGCAGATGGG (sugars k3 d10 k3, PS) |  | -2% |  |
| GCGGAGCATCAACAAA (sugars k3 d10 k3, PS) |  | 30% |  |
| GAGGTCTTTGGGATTC (sugars k3 d10 k3, PS) |  | 74% |  |
| GCGGATAGATCTGTGG (sugars k3 d10 k3, PS) |  | 55% |  |
| GCTGTCGATCTGGTCG (sugars k4 d8 k4, PS) |  | 6% |  |
| GATGAGATATTCCTCT (sugars k3 d10 k3, PS) | -24% |  |  |
| AGGCACGGCTTCAGTC (sugars k3 d10 k3, PS) |  | 49% |  |
| CGCACGGACGAACGCG (sugars k3 d10 k3, PS) | -17% |  |  |
| TGATAGCTGAGCTGAT (sugars kkdddddddddkdkdk, PS) | -22% |  |  |
| GAATGCATAACACGGT (sugars k3 d10 k3, PS) |  | 61% |  |
| CCACAATCAGCAAGTC (sugars k3 d10 k3, PS) | 0% |  |  |
| ACTTGTGACCCACATA (sugars k3 d10 k3, PS) | -4% |  |  |
| ATGACGACTTAAGCTA (sugars k3 d10 k3, PS) |  | 62% |  |
| TCCCAACCCGCTTCTC (sugars k3 d10 k3, PS) |  | 14% |  |
| CTGATCGCTGGACAGC (sugars k3 d10 k3, PS) |  | 20% |  |
| GTAACAGGCTATCAGG (sugars k3 d10 k3, PS) |  | 45% |  |
| GCAGTGATGTCAGGTT (sugars kkddddddddddkeke, PS) | 67% |  | target mRNA inhibition (MM.1R, 0.074 µM): 25%; target mRNA inhibition (MM.1R, 0.222 µM): 45%; target mRNA inhibition (MM.1R, 0.666 µM): 63%; target mRNA inhibition (MM.1R, 2 µM): 85% |
| GGAAGTTTACACTGGA (sugars k3 d10 k3, PS) |  | 85% | target mRNA inhibition (MM.1R, 0.0625 µM): 41% and 42%; target mRNA inhibition (MM.1R, 0.25 µM): 66% and 68%; target mRNA inhibition (MM.1R, 0.666 µM): 79% and 94%; target mRNA inhibition (MM.1R, 2 µM): 95% and 98%; target mRNA inhibition (MM.1R, 4 µM): 91% |
| ACTCAATGTGCACCTT (sugars k3 d10 k3, PS) |  | 29% |  |
| CCACTATTCGAGAGAA (sugars k3 d10 k3, PS) |  | 57% |  |
| CTGAGACTACACCTAC (sugars k3 d10 k3, PS) | -40% |  |  |
